Measurements published in PubChem BioAssay AID2202554 (NIEHS Division of Translational Toxicology (DTT)).
Inconclusive results are not listed. Activity calls are given as the source filed them. How the calls were made is not given here.

System: S. typhimurium/E. coli reverse mutation, colony counts
Assay: Bacterial reverse mutation test (aka Ames test) summary data
Outline: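 S. typhimurium his⁻ strains (TA97–TA1538) and E. coli WP2 uvrA pKM101 trp⁻, dosed over a range with or without rat, hamster or mouse liver S9. Preincubated 20 min at 37° C (or plate incorporation), plated in agar, incubated usually two days. Revertant colonies counted against negative controls.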

| SMILES | outcome |
| --- | --- |
| CC(C)CCC[C@@H](C)[C@H]1CC[C@H]2[C@@H]3CC=C4C[C@@H](OC(=O)Cc5ccc(N(CCCl)CCCl)cc5)CC[C@]4(C)[C@H]3CC[C@]12C | inactive; negative |
| CCc1c(Br)c(Br)c(Br)c(Br)c1Br | inactive; negative |
| CC(O)CN(CC(C)O)CC(C)O (stereo not drawn) | inactive; negative |
| COC(C)(C)CC(C)=O | inactive; negative |
| Oc1ccc([C@H]2COc3cc(O)ccc3C2)cc1 | inactive; negative |
| CCCN(CCC)C(=O)SCC | inactive; negative |
| CC(O)CBr (stereo not drawn) | active; positive |
| OCc1ccco1 | inactive; negative |
| N[C@H](Cc1ccccc1)C(=O)O | inactive; negative |
| CC(O)CCl (stereo not drawn) | active; positive |
| CC(O)c1ccccc1 (stereo not drawn) | inactive; negative |
| C(=C/c1ccccc1)/c1ccccc1 | inactive; negative |
| O=C1C(c2[nH]c3ccc(S(=O)(=O)O)cc3c2O)=Nc2ccc(S(=O)(=O)O)cc21 | active; positive |
| C=C(C)C(=O)OCC | inactive; negative |
| O=[N+]([O-])c1cccc2cccc([N+](=O)[O-])c12 | active; positive |
| CCCC[n+]1ccccc1 | inactive; negative |
| COc1ccc(N=[N+]([O-])c2ccc(OC)cc2)cc1 | active; positive |
| C=C(C)C#N | inactive; negative |
| Cc1ccc(C)c(N)c1 | active; positive |
| O=[N+]([O-])c1c(Cl)cc(Cl)cc1Cl | inactive; negative |
| CC(C)S | inactive; negative |
| NCCCNCCCN | inactive; negative |
| CCOCCOCCO | inactive; negative |

| SMILES | outcome |
| --- | --- |
| NCCCOCCOCCOCCCN | inactive; negative |
| CCCCCCCCCC(=O)O | inactive; negative |
| CN(C)c1ccc(C(=C2C=CC(=[N+](C)C)C=C2)c2ccccc2)cc1 | inactive; negative |
| Nc1ccc(-c2ccc(N)cc2)cc1 | active; positive |
| O=C(Nc1ccc(Br)cc1)c1cc(Br)cc(Br)c1O | inactive; negative |
| O=C=S | active; weakly positive |
| COC(C)(C)C | inactive; negative |
| CCCCC(CC)COS(=O)(=O)O (stereo not drawn) | inactive; negative |
| c1ccc2[nH]c(-c3cscn3)nc2c1 | active; positive |
| CCCCNC(=O)NS(=O)(=O)c1ccc(C)cc1 | inactive; negative |
| ClC1(Cl)C2(Cl)C3(Cl)C4(Cl)C(Cl)(Cl)C5(Cl)C3(Cl)C1(Cl)C5(Cl)C24Cl (stereo not drawn) | inactive; negative |
| CC(C)(C)OC=O | inactive; negative |
| Nc1nc(=O)n([C@@H]2CS[C@H](CO)O2)cc1F | inactive; negative |
| CCNc1cc(O)ccc1C | active; positive |
| O=[N+]([O-])c1cccc2ccccc12 | active; positive |
| Oc1c(Cl)cccc1Cl | inactive; negative |
| O=CC=Cc1ccco1 | inactive; negative |
| [CH3][Pb]([CH3])([CH3])[CH3] | inactive; negative |
| COc1ccc(C)cc1N | active; positive |
| CCOC(=O)CC | inactive; negative |
| Nc1nc(-c2ccccc2)cs1 | active; positive |
| CC(=O)Nc1ccccc1 | inactive; negative |
| C1CCC2OC2C1 (stereo not drawn) | active; positive |

| SMILES | outcome |
| --- | --- |
| CCNCC | inactive; negative |
| Nc1cc(C(=O)O)c(O)c(S(=O)(=O)O)c1 | inactive; negative |
| CCN(CC)c1cccc(O)c1 | active; positive |
| CCn1cc(C(=O)O)c(=O)c2ccc(C)nc21 | active; weakly positive |
| ClSC(Cl)(Cl)Cl | active; positive |
| C1CC2OC2CC1C1CO1 (stereo not drawn) | active; positive |
| Cc1ccc(N=C=O)cc1N=C=O | active; positive |
| Cc1c[nH]c(=S)[nH]c1=O | inactive; negative |
| Cc1cccc([N+](=O)[O-])c1C(=O)O | active; positive |
| CCCCCON=O | active; positive |
| IC(I)I | active; positive |
| NC(=O)CC(N)=O | inactive; negative |
| CC(C)NCC(O)c1ccc(O)c(O)c1 (stereo not drawn) | active; weakly positive |
| OCCBr | active; positive |
| C=C | inactive; negative |
| O=c1ccc(O)n[nH]1 | active; weakly positive |
| C=C(C)OC(C)=O | inactive; negative |
| Nc1cccc(S(=O)(=O)O)c1 | inactive; negative |
| CCCCCCCCCCCC[S][Sn]([CH2]CCC)([CH2]CCC)[S]CCCCCCCCCCCC | inactive; negative |
| CCCCOC(=O)COc1ccc(Cl)cc1Cl | inactive; negative |
| CCCc1cc(=O)[nH]c(=S)[nH]1 | inactive; negative |
| CN(C)CCN(Cc1ccccc1)c1ccccn1 | inactive; negative |
